This experiment deals with Mast cells. As to the kind of experiment: Stimulation of mast cells by FcεRI crosslinking (Assay 4). It is filed as cell-based. To be noted: test compound 30 min prior to DNP-HSA. How it is done: Assay 1) In vitro testing in a SHIP enzyme assay. Test compounds were dissolved in a suitable solvent (e.g. EtOH, DMSO and others) and diluted into aqueous buffer (20 mM Tris HCl, pH 7.5 and 10 mM MgCl2). SHIP enzyme assays were performed in 96-well microtitre plates with 10 ng of enzyme/well in a total volume of 25 μL of 20 mM Tris HCl, pH 7.5 and 10 mM MgCl2. SHIP enzyme was incubated with test extracts (provided in solvent) or vehicle for 15 min at 23° C. before the addition of 100 μM inositol-1,3,4,5-tetrakisphosphate (Echelon Biosciences Inc, Salt Lake City, Utah). After 20 min at 37° C. and the amount of inorganic phosphate released assessed by the addition of Malachite Green reagent and absorbance measurement at 650 nm. Assay 2) Macrophage TNF-α production. J774.1a macrophage cells were treated with 10 μg/mL of test compound dissolved in solvent (e.g. cyclodextran) for 40 minutes prior to the addition of 100 ng/mL LPS. Culture supernatants were collected after 2 hr and 5 hr for TNF-α determination by ELISA. Assay 3) Macrophage TNF-α NO assay. J774.1a macrophage cells were treated with 10 μg/ml of test compound dissolved in solvent for 40 minutes prior to the addition of LPS. Culture supernatants were collected after 24 hr. for determination of NO concentration using the Griess reagent. Assay 4) Stimulation of mast cells by FcεRI crosslinking. Mast cells were pre-loaded overnight in BMMC medium lacking IL-3 with 0.1 μg/ml anti-DNP IgE (SPE-7, Sigma, Oakville, Ont). For calcium flux measurements, cells were incubated with 2 μM fura 2-acetoxymethyl ester (Molecular Probes, Eugene, Oreg.) in Tyrode's buffer at 23° C. for 45 min. Cells were then washed and incubated in the presence of the test compound 30 min prior to stimulation with the indicated concentration of DNP-human serum albumin (DNP-HSA). Calcium influx was monitored by spectrofluorometry as described previously. For analysis of intracellular signaling, cells were pre-loaded with anti-DNP IgE as above, pre-treated with the test compound for 30 min at 37° C. and stimulated with 20 ng/ml DNP-HSA for 5 min. Total cell lysates were then prepared and analyzed for phospho-PKB, phospho-p38^MAPK, phospho-MAPK, Grb-2 (Cell Signalling, Mississauga, Ont) and SHIP^6 by immunoblot analysis. Assay 5) Mouse acute cutaneous anaphylaxis model. […] The ability of SHIP activators to reduce tumor cell survival was assessed in MM cell lines treated with the test compound. The lines OPM1, OPM2, MM.1S and RPMI 8226 were plated at a density of 1×10^5 cells/mL in 200 μL of medium with various concentrations of the test compound, and viable cell numbers were determined on day 3 and day 5 by trypan blue exclusion. […]

Regarding `Cc1cc(O)cc2c1[C@]1(C)CCC3C(C)(C)CCC[C@]3(C)[C@H]1C2` (stereo partly shown) [Compound 100], the “Assay 4: Stimulation of mast cells by FcεRI crosslinking, desired activity” value is “+”.
